Measurements published in patent US9944589B2, “Cycloproplyamine derivatives useful as inhibitors of histone demethylases KDM1A” (Istituto Europeo de Oncologia S.r.L., priority 2012, dated 2018).
Structures can show the parent of a compound that is named as a salt.

Columns and labels:
[1] = molecular target: T1, human recombinant KDM1A (LSD1)/CoRest (Homo sapiens, UniProt O60341); experiment: Assay of enzyme inhibition of KDM1A (LSD1), Amplex UltraRed/peroxidase coupled; format: biochemical; settings: 15 min preincubation, 4.5 μM mono-methylated H3-K4 peptide, range classes, read-out: IC50 [μM], KDM1A inhibition assay
T1 construct: made in house; host or cells: E. coli
How it was run: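 KDM1A/CoRest complex with inhibitor (e.g. 0–100 μM) and Amplex UltraRed/peroxidase preincubated 15 min at RT. Substrate: mono-methylated H3K4 21-mer peptide in 50 mM Tris pH 8, 0.05 mg/ml BSA, aerobic. IC50 from duplicates run twice, background-corrected.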

[2] = tested on: Acute promyelocytic leukemia NB4 cells; experiment: Cell growth (CellTiter-Fluor cell viability assay); format: cell-based; settings: Homo sapiens, NB-4, 48 h, range classes, read-out: IC50 [μM], cell growth inhibitory assay
Source text: CellTiter-Flor® (Promega) is as a nonlytic, single-reagent-addition fluorescence assay that measures the relative number of living cells in a culture population after experimental manipulation. The CellTiter-Fluor™ Cell Viability Assay measures the conserved and constitutive protease activity within live cells and therefore acts as a marker for cell viability.
Acute promyelocytic leukemia NB4 cells, (obtained from the Deutsche Sammlung von Mikroorganismen and Zellkulturen) in exponential growth, were incubated for 48 h with different concentrations of the inhibitors. After 48 h a volume of CellTiter-Fluor® Reagent equal to one fifth of volume of cell culture medium was added. The content was mixed and incubates for at least 90 min at 37° C. degree to obtain a stable signal. The fluorescence was recorded using an excitation wavelength of 360 nm and an emission at 535 nm. The IC50 was calculated using GraphPad Software.

Structure (SMILES)	IC50 [1] [µM]	IC50 [2] [µM]
N[C@]1(c2ccccc2)C[C@H]1c1ccc(NC(=O)c2cccc(NC(=O)OCc3ccccc3)c2)cc1 (relative stereo) [Example A-84, benzyl N-[3-[(4-[trans-2-amino-2-phenyl-cyclopropyl]phenyl)carbamoyl]phenyl]carbamate 2,2,2-trifluoroacetic acid]	< 0.1	10 to 50
N[C@]1(c2ccccc2)C[C@H]1c1ccc(NC(=O)c2cccc3ccccc23)cc1 (relative stereo) [Example A-90, N-[4-[trans-2-amino-2-phenyl-cyclopropyl]phenyl] naphthalene-1-carboxamide hydrochloride]	< 0.1	≤ 10
CC[C@@]1(N)C[C@H]1c1ccc(NC(=O)c2ccc(N3CCN(C)CC3)cc2)cc1 (relative stereo) [Example A-97, N-[4-[trans-2-amino-2-ethyl-cyclopropyl]phenyl]-4-(4-methylpiperazin-1-yl)benzamide 2,2,2-trifluoroacetic acid]	< 0.1	10 to 50
CC[C@@]1(N)C[C@H]1c1ccc(NC(=O)c2ccc(N3CCOCC3)c(NC(=O)OCc3ccccc3)c2)cc1 (relative stereo) [Example A-99, benzyl N-[5-[[4-[trans-2-amino-2-ethyl-cyclopropyl]phenyl]carbamoyl]-2-morpholino-phenyl]carbamate 2,2,2-trifluoroacetic acid]	< 0.1	≤ 10
CC[C@@]1(N)C[C@H]1c1ccc(NC(=O)c2ccc(N3CCN(C)CC3)c(NC(=O)OCc3ccccc3)c2)cc1 (relative stereo) [Example A-117, benzyl N-[5-[[4-[trans-2-amino-2-ethyl-cyclopropyl]phenyl]carbamoyl]-2-(4-methylpiperazin-1-yl)phenyl] carbamate 2,2,2-trifluoroacetic acid]	0.1 to 1	≤ 10
N[C@]1(Cc2ccc3ccccc3c2)C[C@H]1c1ccc(-n2cc(-c3ccccc3)nn2)cc1 (relative stereo) [Example A-124, trans-1-(2-naphthylmethyl)-2-[4-(4-phenyltriazol-1-yl)phenyl]cyclopropan amine hydrochloride]	0.1 to 1	10 to 50
N[C@]1(CNCc2ccccc2)C[C@H]1c1ccccc1 (relative stereo) [Example B-3, trans-1-(benzylamino)methyl-2-phenyl-cyclopropanamine dihydrochloride]	1 to 5	50 to 100
CN1CCN(C(=O)CN[C@]2(Cc3ccc4ccccc4c3)C[C@H]2c2ccccc2)CC1 (relative stereo) [Example C-24, 1-(4-methylpiperazin-1-yl)-2-[[trans-1-(2-naphthylmethyl)-2-phenyl-cyclopropyl]amino]ethanone dihydrochloride]	0.1 to 1	10 to 50
N[C@]1(c2ccc([N+](=O)[O-])cc2)C[C@H]1c1ccccc1 (relative stereo) [Example D-3, trans-1-(4-nitrophenyl)-2-phenyl-cyclopropanamine hydrochloride]	0.1 to 1	10 to 50
N[C@]1(c2ccccc2)C[C@H]1c1ccc(Cl)cc1 (relative stereo) [Example D-4, trans-2-(4-chlorophenyl)-1-phenyl-cyclopropanamine hydrochloride]	0.1 to 1	50 to 100
N[C@]1(c2ccccc2)C[C@H]1c1ccc(Br)cc1 (relative stereo) [Example D-5, trans-2-(4-bromophenyl)-1-phenyl-cyclopropanamine hydrochloride]	< 0.1	10 to 50
N[C@]1(Cc2ccc3ccccc3c2)C[C@H]1c1ccc(OCc2ccccc2)cc1 (stereo in doubt) [Example A-67, 2-(4-benzyloxyphenyl)-1-(2-naphthylmethyl) cyclopropanamine hydrochloride]	0.1 to 1	10 to 50

More lines, now with the values ahead:

IC50 [1] [µM]	IC50 [2] [µM]	Structure (SMILES)
< 0.1	≤ 10	N[C@]1(c2ccccc2)C[C@H]1c1ccc(NC(=O)c2ccc3ccccc3c2)cc1 (relative stereo) [Example A-85, N-[4-[trans-2-amino-2-phenyl-cyclopropyl]phenyl] naphthalene-2-carboxamide hydrochloride]
< 0.1	50 to 100	CC[C@@]1(N)C[C@H]1c1ccc(NC(=O)c2ccccc2)c(F)c1 (relative stereo) [Example A-86, N-[4-[trans-2-amino-2-ethyl-cyclopropyl]-2-fluoro-phenyl]benzamide hydrochloride]
< 0.1	10 to 50	CC[C@@]1(N)C[C@H]1c1ccc(NC(=O)c2ccc(-c3ccccc3)cc2)c(F)c1 (relative stereo) [Example A-87, N-[4-[trans-2-amino-2-ethyl-cyclopropyl]-2-fluoro-phenyl]-4-phenyl-benzamide hydrochloride]
< 0.1	10 to 50	CC[C@@]1(N)C[C@H]1c1ccc(NC(=O)c2ccc(N3CCOCC3)cc2)cc1 (relative stereo) [Example A-88, N-[4-[trans-2-amino-2-ethyl-cyclopropyl]phenyl]-4-morpholino-benzamide 2,2,2-trifluoroacetic acid]
< 0.1	≤ 10	N[C@]1(c2ccccc2)C[C@H]1c1ccc(NC(=O)c2ccc(-c3ccccc3)cc2)cc1 (relative stereo) [Example A-89, N-[4-[trans-2-amino-2-phenyl-cyclopropyl]phenyl]-4-phenyl-benzamide 2,2,2-trifluoroacetic acid]
0.1 to 1	10 to 50	CC[C@@]1(N)C[C@H]1c1cccc(NC(=O)c2ccc(-c3ccccc3)cc2)c1 (relative stereo) [Example A-91, N-[3-[trans-2-amino-2-ethyl-cyclopropyl]phenyl]-4-phenyl-benzamide hydrochloride]
0.1 to 1	10 to 50	CC[C@@]1(N)C[C@H]1c1cccc(NC(=O)c2ccc3ccccc3c2)c1 (relative stereo) [Example A-92, N-[3-[trans-2-amino-2-ethyl-cyclopropyl]phenyl] naphthalene-2-carboxamide hydrochloride]
0.1 to 1	≤ 10	CC[C@@]1(N)C[C@H]1c1ccc(NC(=O)c2ccc(NC(=O)OCc3ccccc3)cc2)c(F)c1 (relative stereo) [Example A-95, benzyl N-[4-[[4-[trans-2-amino-2-ethyl-cyclopropyl]-2-fluoro-phenyl]carbamoyl]phenyl]carbamate hydrochloride]
< 0.1	10 to 50	CC[C@@]1(N)C[C@H]1c1ccc(NC(=O)c2ccncc2)cc1 (relative stereo) [Example A-101, N-[4-(trans-2-amino-2-ethyl-cyclopropyl)phenyl] pyridine-4-carboxamide dihydrochloride]
0.1 to 1	≤ 10	N[C@]1(CCc2ccccc2)C[C@H]1c1ccc(NC(=O)c2ccc(-c3ccccc3)cc2)cc1 (relative stereo) [Example A-113, N-[4-(trans-2-amino-2-phenethyl-cyclopropyl)phenyl]-4-phenyl-benzamide hydrochloride]
< 0.1	≤ 10	CN1CCC(c2ccc(C(=O)Nc3ccc([C@@H]4C[C@]4(N)CCc4ccccc4)cc3)cc2)CC1 (relative stereo) [Example A-115, N-[4-(trans-2-amino-2-phenethyl-cyclopropyl)phenyl]-4-(1-methyl-4-piperidyl)benzamide dihydrochloride]
< 0.1	≤ 10	N[C@]1(CCc2ccccc2)C[C@H]1c1ccc(NC(=O)c2cccc(N3CCOC3=O)c2)cc1 (relative stereo) [Example A-118, N-[4-(trans-2-amino-2-phenethyl-cyclopropyl)phenyl]-3-(2-oxooxazolidin-3-yl)benzamide 2,2,2-trifluoroacetic acid]
0.1 to 1	50 to 100	CC[C@@]1(N)C[C@H]1c1ccc(-n2cc(-c3cccc(NC(=O)OCc4ccccc4)c3)nn2)cc1 (relative stereo) [Example A-121, Benzyl N-[3-[1-[4-[trans-2-amino-2-ethyl-cyclopropyl]phenyl]triazol-4-yl]phenyl]carbamate hydrochloride]
0.1 to 1	10 to 50	CC[C@@]1(N)C[C@H]1c1cccc(-n2cc(-c3ccccc3)nn2)c1 (relative stereo) [Example A-122, trans-1-ethyl-2-[3-(4-phenyltriazol-1-yl)phenyl]cyclopropan amine hydrochloride]
< 0.1	≤ 10	N[C@]1(Cc2ccc3ccccc3c2)C[C@H]1c1ccc(NC(=O)c2ccccc2)cc1 [Example A-44, N-[4-[tyrans-2-amino-2-(2-naphthylmethyl)cyclopropyl]phenyl] benzamide hydrochloride]
